ChEMBL document CHEMBL4041543, “Light induced drug release from a folic acid-drug conjugate” (Bioorg Med Chem Lett, 2017)

Experiment: Drug level treated with Photo Dox-Fol conjugate assessed as photolysis-mediated compound release in presence of 1.1 J/cm2 UV light irradiation by RP-HPLC method

SMILES: COc1cccc2c1C(=O)c1c(O)c3c(c(O)c1C2=O)C[C@@](O)(C(=O)CO)C[C@@H]3O[C@H]1C[C@H](N)[C@H](O)[C@H](C)O1
- Drug metabolism: Metabolite detected
